Results from patent US5077034A, “Treatment of tumors with 5-radioiodo-2'-deoxyuridine” (priority 1990, dated 1991).

What was measured:
[1] = biodistribution of radioactivity 40 h after intracerebral injection in 9L gliosarcoma-bearing and sham-operated rats; details: rat, right brain
[2] = test system: 9L gliosarcoma; test: as above
[3] = test system: cultured mammalian cells; details: when incorporated into nuclear DNA; in vitro; cited from earlier work
[4] = test system: murine ovarian tumor (MOT); test: scintigraphic imaging in MOT-bearing and control mice; assay type: in vivo, C3HeB/FeJ mice
[5] = test system: murine ovarian tumor (MOT); test: median survival of tumor-bearing (MOT ascites) mice; assay type: in vivo, C3HeB/FeJ mice; details: 5 i.p. injections, 4 h intervals, 24 h post i.p. tumor inoculation; FIG. 7; dose-dependent
Experimental: (§1) The murine ovarian tumor (MOT) used in these experiments arose spontaneously in the ovary of a C3H mouse and is maintained in our laboratories by serial intraperitoneal [i.p.] transplantation in female C3HeB/FeJ mice. We have examined the appropriateness of the i.p. route for IUdR administration as a means to (i) bypass the rapid intrahepatic dehalogenation of this agent, and (ii) obtain high tumor to nontumor ratios. In these experiments, mice were injected with 10^6 tumor cells 24 h prior to the i.p. administration of ^125 IUdR [5 injections, 4 h apart]. […] Tumor-to-normal-tissue ratios derived from th biodistribution results ranged from 20 for organs with actively proliferating cells (for example uterus, intestine, stomach) to over 400 for organs with nondividing cells (brain, heart).
(§2) The tumor used in these experiments is the same murine ovarian tumor desoribed above. We have determined the median survival of mice after i.p. challenge with various tumor cell inocula.

[6] = test system: 9L gliosarcoma; test: scintigraphic imaging of intracerebral 9L gliosarcoma-bearing and sham-operated rats
[7] = test system: murine ovarian tumor (MOT); test: tumor cell survival after treatment of mouse ascites tumor (MOT); assay type: in vivo, C3HeB/FeJ mice
Experimental: as §1, §2
The relatively long survival of tumor-bearing mice facilitates quantitative evaluation of tumor cell killing after treatment with ^125 IUdR and can be used to calculate a cellular survival fraction. We have, therefore, studied tumor cell survival as a function of the dose of ^125 IUdR administered i.p. at 4 h intervals beginning 24 h after tumor cell i.p. inoculation [10^5 -10^6 cells].
When mice are treated with four doses of ^125 IUdR at 4-h intervals and the survival fraction plotted as a function of the dose per treatment, a rapid decrease in the tumor cell survival fraction [10^-3 ] is observed at doses of 20 μCi per treatment with the curve being flat at higher levels [FIG. 6]. When seven consecutive injections of ^125 IUdR are given, a similar steep reduction in tumor cell survival is also observed; the plateau in this regimen occurs at a survival fraction of 10^-5.

[8] = catabolism/dehalogenation of IUdR in vivo; details: IUdR escaping from the CNS
[9] = later time points (2, 16 and 24 hr), single injection of 300 μCi

O=c1[nH]c(=O)n([C@H]2C[C@H](O)[C@@H](CO)O2)cc1[123I] [^123 IUdR, 5-[^123 I/^125 I]iodo-2'-deoxyuridine]
tissue uptake at 40 h [1]: 0.36 ± 0.14 %ID/g | tissue uptake at 40 h ([1]; uptake in right brain [injected side], sham-operated controls, 40 h after injection, mean±SD): 0.09 ± 0.02 %ID/g | activity in stomach and bladder ([2]; 40 h, mainly associated with the stomach contents and with urine): high activities | activity in all other normal tissues ([2]; 40 h, with the exception of the stomach and the bladder): low | uptake in a tumor that could be precisely excised ([2]; one animal, 40 h after injection): 12 % of the ID | toxicity to cultured mammalian cells [3]: extremely toxic | abdominal radioactivity, tumor-bearing and control mice ([4]; 1 h after single injection of 300 μCi): focal localization of radioactivity | abdominal activity, animals without tumor [4, 9]: cleared from the abdomen | focal area of abdominal activity, MOT-bearing mice [4, 9]: persisted only in MOT-bearing mice | median survival of tumor-bearing animals [5]: prolongs median survival | activity in the thyroid ([6]; 0.1% potassium iodide in drinking water 48 h prior): No activity was seen | activity within the head region at subsequent intervals ([6]; 12-38 h, all tumor-bearing animals): persistence of the activity | bladder and stomach activities at subsequent intervals ([6]; 12-38 h, both groups, mainly associated with stomach contents and urine): still observed in both groups | activity in the head ([6]; 1 h after intracerebral injection, tumor-bearing [n=16] and sham-operated [n=8]): showed activity in the head | clearance of the activity from the head ([6]; all control (sham-operated) animals): ≤ 12 h | activity in the stomach and the bladder ([6]; scintigraphy, 1 h after intracerebral injection): evident | dehalogenation and excretion of free iodine ([6]; suggested by stomach and bladder activity, 1 h): rapid | tumor cell survival fraction as a function of dose ([7]; 5 i.p. injections, 4 h intervals, 24 h post i.p. tumor inoculation, FIG. 8): exponential decrease

O=c1[nH]c(=O)n([C@H]2C[C@H](O)[C@@H](CO)O2)cc1[125I] [^125 IUdR, 5-[^123 I/^125 I]iodo-2'-deoxyuridine]
toxicity to cultured mammalian cells [3]: extremely toxic | tumor cell survival fraction ([7]; four i.p. doses at 4-h intervals, 20 μCi per treatment, curve flat at higher levels): 10^-3 | tumor cell survival fraction (plateau) ([7]; seven consecutive i.p. injections): 10^-5

O=c1[nH]c(=O)n([C@H]2C[C@H](O)[C@@H](CO)O2)cc1I [IUdR, 5-Iodo-2'-deoxyuridine]
catabolism/dehalogenation [8]: rapidly

O=c1[nH]c(=O)n([C@H]2C[C@H](O)[C@@H](CO)O2)cc1[131I] [IUdR radiolabeled with ^131 I, reference compound]
decrease in tumor cell survival ([7]; equivalent doses): does not result in anv decrease in survival
